Test results: patent publication US20100055691A1, “SCREENING METHOD FOR THERAPEUTIC AGENT FOR AMYOTROPHIC LATERAL SCLEROSIS” (HISAMITSU PHARMACEUTICAL CO.,IN., priority 2006, published 2010)

Assays:
Format in all cases: cell-based
[1] = tested on: Tollip and IRAK-1 complex; test: immunoprecipitation of the interaction between Tollip and IRAK-1; details: HEK293 cells transfected with Tollip-Myc-pcDNA3, 100 ng/mL TNF-α for 1 h
Method: There has been a report that Tollip binds to IRAK-1 in IL-1R/TLR signaling. We examined whether this happened in TNF-α signaling also. The experiment was carried out by the immunoprecipitation method, which can verify binding of proteins. HEK293 cells were transfected with Tollip-Myc-pcDNA3. Then, after 24 h, some of the cells were treated for 1 h with 100 ng/mL of TNF-α while others were not treated. After that, the cells were lysed and immunoprecipitation […] was carried out. For the immunoprecipitation, Chrom PumPure mouse IgG (Jackson Immunoresearch) was used as the control, mouse anti-IRAK-1(F-4)SC-5288 (Santa Cruz) and mouse anti-Myc(9B11)#2276 (Santa Cruz) were used as primary antibodies, and goat anti-mouse SC-2005 (Santa Cruz) was used as the secondary antibody.

Tollip = test: cell fractionation and western blotting of the intracellular localization of Tollip; details: HEK293 cells transfected with Tollip-Myc-pcDNA3, 100 ng/mL TNF-α up to 48 h
Method: Firstly, the intracellular localization of alsin and Tollip was examined by cell fractionation and with western blotting. To be more specific, HEK293 cells were transfected with ALS2CR6-FLAG-pIRESpuro2 or Tollip-Myc-pcDNA3 and 24 h later, the cells were lysed and fractionated by a standard method. After that, western blotting (WB) was carried out. In the WB, lamin, which is localized in the cell nucleus only, and tubulin, which is localized in the cytoplasm only, were used as controls; mouse anti-lamin B (101-B7) NA12 (CALBIOCHEM) or mouse anti-tubulin (Ab-2) (clone DM1A) (LABVISION/NEOMARKERS) were used as primary antibodies, and goat anti-mouse SC-2005 (Santa Cruz) was used as the secondary antibody.
Next, with HEK293 cells transfected with Tollip-Myc-pcDNA3, we examined how the intracellular localization of Tollip changed by TNF-α treatment. Treatment with 100 ng/mL of TNF-α was given up to 48 h and changes in localization of Tollip were checked at different time points.

[2] = tested on: NFκB protein in HEK293 cells; test: western blotting of NFκB protein in cell nucleus and cytoplasm; details: 100 ng/mL TNF-α for 1, 2, 4, 8 or 24 h
Method: Furthermore, the expression level of the NFκB protein in the cell nucleus and the cytoplasm of HEK293 cells treated with 100 ng/mL of TNF-α for 1, 2, 4, 8, or 24 h was examined using western blotting (WB). For this WB, rabbit anti-NFκB p65(C-20) SC-372 (Santa Cruz) was used as the primary antibody and goat anti-rabbit SC-2004 (Santa Cruz) as the secondary antibody.

[3] = tested on: NFκB activity in HEK293 cells; test: luciferase assay of induction of NFκB activity by TNF-α
Method: Firstly, for establishing the experiment system, we screened various treatment times and doses of TNF-α to determine the optimum conditions for induction of NFκB activity by TNF-α. The luciferase assay was used for the screening. To be more specific, firstly, the NFκB gene was introduced upstream of LUC into pELAM1-Luc, which is a luciferase (LUC) reporter vector, and a vector for expressing NFκB/LUC fusion protein was prepared. Next, HEK293 cells were transfected with this expression vector. 24 h after the transfection, the cells were treated with 10 ng/mL of TNF-α for 1, 2, 4, 8, or 24 h. After that, the luciferase assay was carried out by a standard method, and the level of transcription of the NFκB, which was the target gene, was examined. FIG. 9 (A) confirms that highest NFκB activity was induced 1 h after the treatment with TNF-α.
The level of transcription of NFκB was measured using different concentrations of TNF-α: 10, 100, and 1000 ng/mL, keeping the treatment time constant at 1 h. FIG. 9 (B) confirms that the highest NFκB activity was induced with 100 ng/mL.

TNF-α
binding of Tollip and IRAK-1 [1]: suppressed | expression of Tollip (Tollip): decreased the expression of Tollip | intracellular localization of Tollip (Tollip): made Tollip to migrate to the cell nucleus | time of highest level of NFκB protein in the cell nucleus [2]: 1 h | treatment time at which highest NFκB activity was induced ([3]; HEK293 cells, 10 ng/mL TNF-α for 1, 2, 4, 8 or 24 h): 1 h | concentration at which highest NFκB activity was induced ([3]; HEK293 cells, 10, 100 and 1000 ng/mL, treatment time 1 h): 100 ng/mL
